Test results published in PubChem BioAssay AID1963873 (Molecular Pharmacology Branch, DTP, NCI, 2024).
Values joined by “and” are separate entries in the source; they are usually repeats but may differ in a detail not shown here. Equal entries are not always repeated.

System: 276233-004-R-J1-PDC KRAS spheroids with HUVEC/MSC, viability
Test: Anticancer human tumor 276233-004-R-J1-PDC patient-derived colon adenocarcinoma cell line growth inhibition [KRAS2]
Details: for viability, T/C: stronger effect = lower value
Method in brief: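 Combination screen of spheroid viability in tumor-cell co-cultures with endothelial (HUVEC) and mesenchymal stem cell stroma. Each agent was tested in half-log dilutions, topping at clinical Cmax or at 10 microM without a known Cmax.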

[1] = curve of first compound, second compound 0.1 µM
[2] = curve of first compound, second compound 0.316 µM
[3] = curve of first compound, second compound 1 µM
[4] = curve of first compound, second compound 3.16 µM
[5] = curve of first compound, second compound 10 µM
[6] = second compound 0.1 µM, first compound 0.0316 µM
[7] = second compound 0.1 µM, first compound 0.1 µM
[8] = second compound 0.316 µM, first compound 0.0316 µM
[9] = second compound 0.316 µM, first compound 0.1 µM
[10] = second compound 1 µM, first compound 0.0316 µM
[11] = second compound 1 µM, first compound 0.1 µM
[12] = second compound 3.16 µM, first compound 0.0316 µM
[13] = second compound 3.16 µM, first compound 0.1 µM
[14] = second compound 10 µM, first compound 0.0316 µM
[15] = second compound 10 µM, first compound 0.1 µM
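Note: cells exposed to agents for seven days before viability read.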
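Throughout, for viability, T/C: 100% = DMSO vehicle control wells and lower values mean fewer viable cells.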

For `Cn1nccc1Nc1nccc(-c2cc3c(s2)C(C)(C)N(CCN2CCOCC2)C3=O)n1`, the viability, T/C (compound 0.1 µM) was 96.5% [middle of 5 runs], the viability, T/C (compound 0.316 µM) was 86.1% [middle of 5 runs] and the viability, T/C (compound 1 µM) was 79.7% [middle of 5 runs]. For the same compound, the viability, T/C (compound 3.16 µM) was 54.2% [middle of 5 runs] and the viability, T/C (compound 10 µM) was 49.9% [middle of 5 runs].

`Cn1ncnc1[C@H]1c2n[nH]c(=O)c3cc(F)cc(c23)N[C@@H]1c1ccc(F)cc1` + CC1OCC2(CCN(c3cnc(Sc4ccnc(N)c4Cl)c(N)n3)CC2)C1N was tested, and the IC50 [1] was > 100 nM, the IC50 [2] was > 100 nM and the IC50 [3] was > 100 nM. For the same compound, the IC50 [4] was > 100 nM, the IC50 [5] was > 100 nM and the viability, T/C (second compound 0.1 µM, first compound 0.000316 µM) was 95.8%. For the same compound, the viability, T/C (second compound 0.1 µM, first compound 0.001 µM) was 99.4%, the viability, T/C (second compound 0.1 µM, first compound 0.00316 µM) was 102% and the viability, T/C (second compound 0.1 µM, first compound 0.01 µM) was 99%. The viability, T/C [6] was 94.3%, the viability, T/C [7] was 85.1% and the viability, T/C (second compound 0.316 µM, first compound 0.000316 µM) was 92.5%. It also gave a viability, T/C (second compound 0.316 µM, first compound 0.001 µM) of 83.5%, a viability, T/C (second compound 0.316 µM, first compound 0.00316 µM) of 98.1% and a viability, T/C (second compound 0.316 µM, first compound 0.01 µM) of 88.3%. The viability, T/C [8] was 74.9%, the viability, T/C [9] was 89.6% and the viability, T/C (second compound 1 µM, first compound 0.000316 µM) was 88.9%. The viability, T/C (second compound 1 µM, first compound 0.001 µM) was 95.2%, the viability, T/C (second compound 1 µM, first compound 0.00316 µM) was 104% and the viability, T/C (second compound 1 µM, first compound 0.01 µM) was 82.6%. It also gave a viability, T/C [10] of 69.4%, a viability, T/C [11] of 65.6% and a viability, T/C (second compound 3.16 µM, first compound 0.000316 µM) of 83.8%. For the same compound, the viability, T/C (second compound 3.16 µM, first compound 0.001 µM) was 70.1%, the viability, T/C (second compound 3.16 µM, first compound 0.00316 µM) was 68.8% and the viability, T/C (second compound 3.16 µM, first compound 0.01 µM) was 52.8%. The viability, T/C [12] was 59.5%, the viability, T/C [13] was 62.9% and the viability, T/C (second compound 10 µM, first compound 0.000316 µM) was 68.8%. For the same compound, the viability, T/C (second compound 10 µM, first compound 0.001 µM) was 66.4%, the viability, T/C (second compound 10 µM, first compound 0.00316 µM) was 64.9% and the viability, T/C (second compound 10 µM, first compound 0.01 µM) was 64.5%. For the same compound, the viability, T/C [14] was 54.2% and the viability, T/C [15] was 54%.

In the case of `C=CC(=O)N1CCN(c2nc(OCC3CCCN3C)nc3c2CCN(c2cccc4cccc(C)c24)C3)CC1CC#N` (stereo not drawn), the IC50 (compound alone, run of 07/12/2021) is reported as > 3160 nM and 2820 nM, the IC50 (compound alone, run of 07/19/2021) is reported as > 3160 nM and 2570 nM and 2490 nM and the IC50 (compound alone, run of 07/26/2021) is reported as > 3160 nM.

`CC1OCC2(CCN(c3cnc(Sc4ccnc(N)c4Cl)c(N)n3)CC2)C1N` (stereo not drawn) + C=CC(=O)N1CCN(c2nc(=O)n(-c3c(C)ccnc3C(C)C)c3nc(-c4c(O)cccc4F)c(F)cc23)C(C)C1 was tested, and the IC50 [1] was > 10000 nM, the IC50 [2] was > 10000 nM and the IC50 [3] was > 10000 nM. For the same compound, the IC50 [4] was > 10000 nM, the IC50 [5] was > 10000 nM and the viability, T/C [6] was 93.7%. For the same compound, the viability, T/C [7] was 85.8%, the viability, T/C (second compound 0.1 µM, first compound 0.316 µM) was 82.3% and the viability, T/C (second compound 0.1 µM, first compound 1 µM) was 83.7%. It also gave a viability, T/C (second compound 0.1 µM, first compound 3.16 µM) of 71.6%, a viability, T/C (second compound 0.1 µM, first compound 10 µM) of 69.9% and a viability, T/C [8] of 88.7%. For the same compound, the viability, T/C [9] was 103%, the viability, T/C (second compound 0.316 µM, first compound 0.316 µM) was 81.9% and the viability, T/C (second compound 0.316 µM, first compound 1 µM) was 85.9%. It also gave a viability, T/C (second compound 0.316 µM, first compound 3.16 µM) of 67.2%, a viability, T/C (second compound 0.316 µM, first compound 10 µM) of 68% and a viability, T/C [10] of 94.7%. For the same compound, the viability, T/C [11] was 97.7%, the viability, T/C (second compound 1 µM, first compound 0.316 µM) was 76.2% and the viability, T/C (second compound 1 µM, first compound 1 µM) was 87.4%. For the same compound, the viability, T/C (second compound 1 µM, first compound 3.16 µM) was 74.2%, the viability, T/C (second compound 1 µM, first compound 10 µM) was 55.8% and the viability, T/C [12] was 98.6%. It also gave a viability, T/C [13] of 96.4%, a viability, T/C (second compound 3.16 µM, first compound 0.316 µM) of 88.3% and a viability, T/C (second compound 3.16 µM, first compound 1 µM) of 81.8%. It also gave a viability, T/C (second compound 3.16 µM, first compound 3.16 µM) of 63.1%, a viability, T/C (second compound 3.16 µM, first compound 10 µM) of 58% and a viability, T/C [14] of 78.4%. It also gave a viability, T/C [15] of 82.4%, a viability, T/C (second compound 10 µM, first compound 0.316 µM) of 63.9% and a viability, T/C (second compound 10 µM, first compound 1 µM) of 58.3%. It also gave a viability, T/C (second compound 10 µM, first compound 3.16 µM) of 68.4% and a viability, T/C (second compound 10 µM, first compound 10 µM) of 71.8%.
